Blank lines part the entries; values can stand above or below the compound they belong to.
Key:
[1] = Initial relative bioavailability PK study: Triumeq bilayer tablets dispersed in Contrex or purified water vs 4 x 10 mg DTG tablet + Kivexa; assay type: in vivo; conditions: for differences in exposure across all 5 arms: Treatments A-E; for AUC0-inf (h*ug/mL) Ratio / Cmax (ug/mL) Ratio: DTG; for impact of DTG solubility on DTG levels in plasma / PK: solubility range studied 16-70%
Protocol: Treatment (TRT) A: Reference 4×10 mg DTG tablet+Kivexa (ABC 600 mg/3TC 300 mg)
(§1) Treatment B-E: Triumeq bilayer tablets—4 tablets (10 mg DTG/ABC 150 mg/3TC 75 mg) dispersed in high mineral content water (Contrex)* or purified water.
(§2) *Contrex water contains a very high level of minerals including calcium, purified water is mineral free.

[2] = Dissolution (% released), USP <711> and Ph. Eur. 2.9.3; assay type: physicochemical; conditions: active released from Triumeq Dispersible Bilayer Tablet; Q = 75% at 60 minutes
[3] = Estimate of DTG solubility in the dispersion; assay type: physicochemical; conditions: for solubility when dispersed: Triumeq bilayer tablets dispersed in water
Protocol: as §1, §2

[4] = Relative bioavailability: Trii Dispersible tablet (dispersed or direct to mouth) vs adult TRIUMEQ tablet; assay type: in vivo; conditions: for differences in exposure: dispersed or direct to mouth vs. the IR tablet
[5] = B vs A: bi-layer tablet in Contrex water, immediate, vs 4 × 10 mg tablet + Kivexa
[6] = C vs A: bi-layer tablet in Contrex water, 30 mins, vs control
[7] = D vs A: bi-layer tablet in purified water, immediate, vs control
[8] = E vs A: bi-layer tablet in purified water, 30 mins, vs control

differences in exposure across all 5 arms [1]: no differences in exposure
Dissolution (% released) [2]: 101 (99-104) %
solubility when dispersed [3]: fully soluble
differences in exposure [4]: No differences in exposure
SMILES: Nc1nc(NC2CC2)c2ncn([C@H]3C=C[C@@H](CO)C3)c2n1 [Abacavir, (1S,4R-4-[2-amino-6-cyclopropylamino)-9H-purin-9-yl]-2-cyclopentene-1-methanol hemisulfate]

AUC0-inf (h*ug/mL) Ratio [1, 5]: 1.56
Cmax (ug/mL) Ratio [1, 5]: 1.59
AUC0-inf (h*ug/mL) Ratio [1, 6]: 1.53
Cmax (ug/mL) Ratio [1, 6]: 1.56
AUC0-inf (h*ug/mL) Ratio [1, 7]: 1.58
Cmax (ug/mL) Ratio [1, 7]: 1.56
AUC0-inf (h*ug/mL) Ratio [1, 8]: 1.54
Cmax (ug/mL) Ratio [1, 8]: 1.58
exposure compared to the reference, fold ([1]; bilayer tablets dispersed (B-E) vs reference 4×10 mg DTG tablet + Kivexa): ~1.6 ×
impact of DTG solubility on DTG levels in plasma / PK [1]: no impact on PK
impact of DTG solubility on DTG levels in plasma / PK ([1]; listed as DTG): does not impact
Dissolution (% released) [2]: 91 (87-95) %
Estimate of DTG solubility ([3]; Treatment B: Bi-layer tablet, Contrex water (Ca++) plus flavour and sweetener, dispersion time immediate): Approx. 45% DTG
Estimate of DTG solubility ([3]; Treatment C: Bi-layer tablet, Contrex water (Ca++) plus flavour and sweetener, dispersion time 30 mins): Approx. 45% DTG
Estimate of DTG solubility ([3]; Treatment D: Bi-layer tablet, purified water plus flavour and sweetener, dispersion time immediate): Approx. 70% DTG
Estimate of DTG solubility ([3]; Treatment E: Bi-layer tablet, purified water plus flavour and sweetener, dispersion time 30 mins): Approx. 16% DTG
exposure, fold ([4]; dosed as dispersion vs adult immediate release tablet): ~1.6 ×
exposure, fold ([4]; dosed direct to mouth vs adult immediate release tablet): ~1.25 ×
SMILES: C[C@@H]1CCO[C@H]2Cn3cc(C(=O)NCc4ccc(F)cc4F)c(=O)c(O)c3C(=O)N12 [Dolutegravir, (4R,12aS)-N-[(2,4-difluorophenyl)methyl]-7-hydroxy-4-methyl-6,8-dioxo-3,4,12,12a-tetrahydro-2H-pyrido[5,6]pyrazino[2,6-b][1,3]oxazine-9-carboxamide]

differences in exposure across all 5 arms [1]: no differences in exposure
Dissolution (% released) [2]: 99 (92-106) %
solubility when dispersed [3]: fully soluble
differences in exposure [4]: No differences in exposure
SMILES: Nc1ccn([C@@H]2CS[C@H](CO)O2)c(=O)n1 [Lamivudine, 2′,3′-dideoxy-3′-thiacytidine]

From patent US20230233470A1, “Formulations” (ViiV Healthcare Company, priority 2020, published 2023)
